Data: patent US20230172846A1, “ORAL DISSOLVABLE FILM AND METHOD OF MANUFACTURING AND USING THE SAME” (CURE PHARMACEUTICAL HOLDING CORP., priority 2019, published 2023)

Columns and labels:
[1] = Vitamin D3 Oral Thin Film 4 weeks stability study (% assay); format: physicochemical; settings: for % Assay of Vitamin D3: in oral thin film
From the text: Vitamin D3 is a highly sensitive Lipophilic active pharmaceutical ingredient (API). It was used as a model drug, formulated using above formulation and, Vitamin D3 Oral Thin Film tested for 4 weeks stability study.

pancreatic cancer = settings: in vivo; cited from earlier work
[2] = CBD film stability study (% assay of CBD); format: physicochemical

Structure (SMILES): C=C1CC[C@H](O)C/C1=C/C=C1\CCC[C@]2(C)[C@@H]([C@H](C)CCCC(C)C)CC[C@@H]12 [Vitamin D3]
- Protection and stability of Vitamin D3 in OTF ([1]; 4 weeks stability study, high heat and humidity): significant protection
- % Assay of Vitamin D3 ([1]; 25 C./60% RH, T 1 Week): 95%
- % Assay of Vitamin D3 ([1]; 25 C./60% RH, T2 Weeks): 100%
- % Assay of Vitamin D3 ([1]; 25 C./60% RH, T3 Weeks): 101%
- % Assay of Vitamin D3 ([1]; 25 C./60% RH, T4 Weeks): 101%
- % Assay of Vitamin D3 ([1]; 40 C./75% RH, T 1 Week): 98%
- % Assay of Vitamin D3 ([1]; 40 C./75% RH, T2 Weeks): 92%
- % Assay of Vitamin D3 ([1]; 40 C./75% RH, T3 Weeks): 91%
- % Assay of Vitamin D3 ([1]; 40 C./75% RH, T4 Weeks): 93%
- % Assay of Vitamin D3 ([1]; T0 Week): 100%

Structure (SMILES): COc1cc(-c2cc(=O)c3c(O)cc(O)c(CC=C(C)C)c3o2)ccc1O [FBL-03G]
- Survival rate of subjects suffering from pancreatic cancer (pancreatic cancer): increase survival rate

Structure (SMILES): C=C(C)[C@@H]1CCC(C)=C[C@H]1c1c(O)cc(CCCCC)cc1O [CBD, Cannabidiol]
- % Assay of CBD ([2]; 25 C./60% RH, T0 Week): 108%
- % Assay of CBD ([2]; 25 C./60% RH, T1 Month): 109%
- % Assay of CBD ([2]; 25 C./60% RH, T2 Months): 113%
- % Assay of CBD ([2]; 25 C./60% RH, T 2 Weeks): 109%
- % Assay of CBD ([2]; 25 C./60% RH, T3 Months): 120%
- % Assay of CBD ([2]; 40 C./75% RH, T1 Month): 106%
- % Assay of CBD ([2]; 40 C./75% RH, T2 Months): 113%
- % Assay of CBD ([2]; 40 C./75% RH, T 2 Weeks): 108%
- % Assay of CBD ([2]; 40 C./75% RH, T3 Months): 118%
- % Assay of CBD ([2]; 40 C./75% RH, T9 Months): 96%
- Stability and protection of the API in the film formulation ([2]; T=3M stability): better stability
- % Assay of CBD ([2]; in film formulation, 25 C./60% RH, T1 Month): 109%
- % Assay of CBD ([2]; in film formulation, 25 C./60% RH, T2 Months): 113%
- % Assay of CBD ([2]; in film formulation, 25 C./60% RH, T 2 Weeks): 109%
- % Assay of CBD ([2]; in film formulation, 25 C./60% RH, T3 Months): 120%
- % Assay of CBD ([2]; in film formulation, 40 C./75% RH, T1 Month): 106%
- % Assay of CBD ([2]; in film formulation, 40 C./75% RH, T2 Months): 113%
- % Assay of CBD ([2]; in film formulation, 40 C./75% RH, T 2 Weeks): 108%
- % Assay of CBD ([2]; in film formulation, 40 C./75% RH, T3 Months): 118%
- % Assay of CBD ([2]; in film formulation, T0 Week): 108%
